In ChEMBL document CHEMBL3882724 (2013):
pIC50: −log10 of the molar value.

Assays:
[1] = target: T1, Steroid 17-alpha-hydroxylase/17,20 lyase (Homo sapiens, UniProt P05093); assay: Inhibition of CYP17 in human testicular microsomes using 17alpha-hydroxypregnenolone as substrate assessed as decrease in DHEA levels at 10 nM after 90 mins by ELISA relative to control; set-up: species or system Testis; conditions: 1.5 h
T1 sequence (P05093 whole entry): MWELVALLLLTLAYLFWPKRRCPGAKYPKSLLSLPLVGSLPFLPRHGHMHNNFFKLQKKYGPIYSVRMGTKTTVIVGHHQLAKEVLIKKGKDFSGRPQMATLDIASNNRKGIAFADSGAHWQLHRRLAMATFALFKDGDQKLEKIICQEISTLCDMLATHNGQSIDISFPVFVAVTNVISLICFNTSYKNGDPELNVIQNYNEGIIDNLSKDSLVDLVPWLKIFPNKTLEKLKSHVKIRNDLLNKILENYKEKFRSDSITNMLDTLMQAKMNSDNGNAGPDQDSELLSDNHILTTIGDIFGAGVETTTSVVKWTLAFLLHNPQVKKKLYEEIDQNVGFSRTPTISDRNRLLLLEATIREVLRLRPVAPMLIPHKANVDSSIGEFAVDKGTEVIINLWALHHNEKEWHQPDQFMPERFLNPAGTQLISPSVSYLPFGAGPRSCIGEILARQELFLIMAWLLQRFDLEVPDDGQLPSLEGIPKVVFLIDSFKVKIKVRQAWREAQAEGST

[2] = target: T1, Steroid 17-alpha-hydroxylase/17,20 lyase; assay: Inhibition of CYP17 in human testicular microsomes using 17alpha-hydroxypregnenolone as substrate assessed as decrease in DHEA levels after 90 mins by ELISA; set-up: species or system Testis
[3] = target: T2, CYP21 (steroid 21-hydroxylase) (Homo sapiens, UniProt P08686); assay: Inhibition of human CYP21 transfected in HEK293 cells assessed as decrease in conversion of progesterone to 11-deoxycorticosterone preincubated for 5 hrs followed by progesterone addition measured after 20 hrs by ELISA; assay type: cell-based; set-up: concentration or dose not given beside the values; conditions: HEK293 cells transfected with human CYP21, probe progesterone
T2 sequence (P08686 whole entry): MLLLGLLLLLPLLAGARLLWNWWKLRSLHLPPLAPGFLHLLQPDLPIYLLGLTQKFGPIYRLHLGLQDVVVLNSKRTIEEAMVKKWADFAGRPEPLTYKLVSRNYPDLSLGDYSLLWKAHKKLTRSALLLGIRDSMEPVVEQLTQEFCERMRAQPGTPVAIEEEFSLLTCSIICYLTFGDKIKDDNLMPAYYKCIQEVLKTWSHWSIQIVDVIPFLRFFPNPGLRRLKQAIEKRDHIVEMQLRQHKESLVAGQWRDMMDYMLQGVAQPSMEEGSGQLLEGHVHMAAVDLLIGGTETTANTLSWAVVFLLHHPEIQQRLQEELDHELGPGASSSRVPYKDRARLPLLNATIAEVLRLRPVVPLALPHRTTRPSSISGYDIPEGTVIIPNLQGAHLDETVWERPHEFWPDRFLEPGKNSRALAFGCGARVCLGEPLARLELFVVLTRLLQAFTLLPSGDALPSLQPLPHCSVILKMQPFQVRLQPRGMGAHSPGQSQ

[4] = Half life in human liver microsomes at 1 uM by LC-MS/MS analysis

Compound `C[C@]12CC[C@H]3[C@@H](CC[C@H]4CNC(=O)CC[C@@]43C)C1=CC=C2n1ccnc1` has an inhibition at 0.01 µM [1] of 50 to 80%.

In the case of `CCCOc1cncc(C2=CC[C@H]3[C@@H]4CCN5C(=O)CCCC[C@]5(C)[C@H]4CC[C@]23C)c1`, the pIC50 [2] was at least 7.96 and the inhibition at 0.01 µM [1] was 50 to 80%.

`C[C@]12CC[C@H]3[C@@H](CC[C@H]4CC(=O)NCC[C@@]43C)C1=CC=C2n1ccnn1` gave an inhibition at 0.01 µM [1] of 1 to 50%.

With `CCc1cncc(C2=CC[C@H]3[C@@H]4CC[C@H]5CCCCC[C@]5(C)[C@H]4CC[C@]23C)c1` the inhibition at 0.01 µM [1] was 1 to 50%.

`Cc1cncc(C2=CC[C@H]3[C@@H]4CCN5CCCCC[C@]5(C)[C@H]4CC[C@]23C)c1` showed an inhibition at 0.01 µM [1] of 1 to 50%.

In the case of `COc1cncc(C2=CC[C@H]3[C@@H]4CC[C@H]5CCCCC[C@]5(C)[C@H]4CC[C@]23C)c1`, the inhibition at 0.01 µM [1] was 50 to 80%.

With `COc1cncc(C2=CC[C@H]3[C@@H]4CCN5CCCCC[C@]5(C)[C@H]4CC[C@]23C)c1` the inhibition at 0.01 µM [1] was 1 to 50%.

With `C[C@]12CCC(=O)NC[C@@H]1CC[C@@H]1[C@@H]2CC[C@]2(C)C(n3ccnc3)=CC[C@@H]12` the inhibition at 0.01 µM [1] was 50 to 80%.

`C[C@]12CCNC(=O)CC[C@@H]1CC[C@@H]1[C@@H]2CC[C@]2(C)C(c3cccnc3)=CC[C@@H]12` showed an inhibition at 0.01 µM [1] of 50 to 80%.

`C[C@]12CC(O)C[C@@H]1CC[C@@H]1[C@@H]2CC[C@]2(C)C(n3ccnn3)=CC[C@@H]12` (stereo not given in full) showed a pIC50 [2] of 7.10 to 7.30 and an inhibition at 0.01 µM [1] of at most 11%.

In the case of `Cc1cncc(C2=CC[C@H]3[C@@H]4CC[C@H]5CCCCC[C@]5(C)[C@H]4CC[C@]23C)c1`, the inhibition at 0.01 µM [1] was 1 to 50%.

Compound `CC(=O)O[C@H]1CC[C@@]2(C)[C@@H](CC[C@H]3C4=CC=C(c5cccnc5)[C@@]4(C)CC[C@@H]32)C1` has an inhibition at 0.01 µM [1] of at least 80%.

`Cc1cncc(C2=CC[C@H]3[C@@H]4CC=C5CCCC[C@]5(C)[C@H]4CC[C@]23C)c1` showed an inhibition at 0.01 µM [1] of 50 to 80%.

`CN1CC=C2CC[C@@H]3[C@H](CC[C@]4(C)C(c5cccnc5)=CC[C@@H]34)[C@@]2(C)CC1` gave a pIC50 [2] of at least 7.96 and an inhibition at 0.01 µM [1] of 1 to 50%.

In the case of `C=Cc1cncc(C2=CC[C@H]3[C@@H]4CCN5C(=O)CCCC[C@]5(C)[C@H]4CC[C@]23C)c1`, the pIC50 [2] was at least 7.96 and the inhibition at 0.01 µM [1] was 50 to 80%.

With `C[C@]12CCNC(=O)C=C1CC[C@@H]1[C@@H]2CC[C@]2(C)C(n3cnc4ccccc43)=CC[C@@H]12` the inhibition at 0.01 µM [1] was 1 to 50%.

With `C[C@]12CC[C@H]3[C@@H](CCN4CCCCC[C@]34C)[C@@H]1CC=C2c1cccnc1` the inhibition at 0.01 µM [1] was 1 to 50%.

For `CC(=O)O[C@H]1CC[C@@]2(C)[C@@H](CC[C@H]3C4=CC=C(n5ccnc5)[C@@]4(C)CC[C@@H]32)C1`, the pIC50 [2] was at least 7.96 and the inhibition at 0.01 µM [1] was at least 80%.

`CCc1cncc(C2=CC[C@H]3[C@@H]4CC=C5CCCC[C@]5(C)[C@H]4CC[C@]23C)c1` gave an inhibition at 0.01 µM [1] of 1 to 50%.

`CCOc1cncc(C2=CC[C@H]3[C@@H]4CCC5N(C)C(=O)COC[C@]5(C)[C@H]4CC[C@]23C)c1` (stereo not given in full) gave an inhibition at 0.01 µM [1] of 1 to 50%.

For `COc1cncc(C2=CC[C@H]3[C@@H]4CCC5=CC(=O)NCC[C@]5(C)[C@H]4CC[C@]23C)c1`, the pIC50 [2] was at least 7.96 and the inhibition at 0.01 µM [1] was 50 to 80%.

With `Cc1cncc(C2=CC[C@H]3[C@@H]4CC[C@H]5CCOCC[C@]5(C)[C@H]4CC[C@]23C)c1` the pIC50 [2] was at least 7.96 and the inhibition at 0.01 µM [1] was 50 to 80%.

For `CCCOc1cncc(C2=CC[C@H]3[C@@H]4CCC5=CC(=O)N(C)CC[C@]5(C)[C@H]4CC[C@]23C)c1`, the inhibition at 0.01 µM [1] was 50 to 80%.

Compound `Cc1cncc(C2=CC[C@H]3[C@@H]4CCC5=CN(C)CCC[C@]5(C)[C@H]4CC[C@]23C)c1` has an inhibition at 0.01 µM [1] of 1 to 50%.

For `C[C@]12CC[C@H]3[C@@H](CC[C@H]4CNC(=O)CC[C@@]43C)C1=CC=C2n1ccnn1`, the inhibition at 0.01 µM [1] was 1 to 50%.

For `Cc1cncc(C2=CC[C@H]3[C@@H]4CCC5=CC(=O)N(C)CC[C@]5(C)[C@H]4CC[C@]23C)c1`, the pIC50 [2] was at least 7.96 and the inhibition at 0.01 µM [1] was 50 to 80%.

Work on `COC1CC2[C@@H]3CC=C(n4ccnc4)[C@@]3(C)CC[C@@H]2[C@@]2(C)CCC3CC312` (single isomer, unassigned) yielded a pIC50 [2] of at least 7.96, an inhibition at 0.01 µM [1] of at least 80% and an inhibition at 20 h [3] of 10 to 50%.

Compound `COc1cncc(C2=CC[C@H]3[C@@H]4CC=C5CCCC[C@]5(C)[C@H]4CC[C@]23C)c1` has an inhibition at 0.01 µM [1] of 50 to 80%.

`CN1CC[C@@]2(C)C(=CC1=O)CC[C@@H]1[C@@H]2CC[C@]2(C)C(n3cnc4ccccc43)=CC[C@@H]12` showed an inhibition at 0.01 µM [1] of 1 to 50%.

For `Cc1cncc(C2=CC[C@H]3[C@@H]4CCC5N(C)C(=O)COC[C@]5(C)[C@H]4CC[C@]23C)c1` (stereo not given in full), the inhibition at 0.01 µM [1] was 1 to 50%.

Compound `C[C@]12CCCCC[C@@H]1CC[C@@H]1[C@@H]2CC[C@]2(C)C(c3cccnc3)=CC[C@@H]12` has an inhibition at 0.01 µM [1] of 1 to 50%.

In the case of `C[C@]12CC[C@H](O)C[C@@H]1CC[C@@H]1[C@@H]2CC[C@]2(C)C(n3ccnn3)=CC[C@@H]12`, the pIC50 [2] was at least 7.96 and the inhibition at 0.01 µM [1] was at least 80%.

Compound `COC1CC[C@@]2(C)[C@@H](CC[C@@H]3[C@@H]2CC[C@]2(C)C(c4cncc(C)c4)=CC[C@@H]32)C1` (stereo not given in full) has an inhibition at 0.01 µM [1] of 1 to 50%.

Work on `C[C@]12CC[C@H]3[C@@H](CC[C@H]4CNC(=O)CC[C@@]43C)C1=CC=C2c1cccnc1` yielded an inhibition at 0.01 µM [1] of 50 to 80%.

Work on `C[C@]12CCCCC[C@@H]1CC[C@@H]1[C@@H]2CC[C@]2(C)C(c3cnccc3Cl)=CC[C@@H]12` yielded an inhibition at 0.01 µM [1] of 1 to 50%.

`C[C@]12CCC(=O)NC[C@@H]1CC[C@@H]1[C@@H]2CC[C@]2(C)C(n3ccnn3)=CC[C@@H]12` gave an inhibition at 0.01 µM [1] of 1 to 50%.

In the case of `COC1CC[C@@]2(C)[C@@H](CC[C@@H]3[C@@H]2CC[C@]2(C)C(n4ccnn4)=CC[C@@H]32)C1` (stereo not given in full), the inhibition at 0.01 µM [1] was 1 to 50%.

`COc1cncc(C2=CC[C@H]3[C@@H]4CCC5=CCN(C)CC[C@]5(C)[C@H]4CC[C@]23C)c1` gave an inhibition at 0.01 µM [1] of 1 to 50%.

`C[C@]12CCNCC[C@@H]1CC[C@@H]1[C@@H]2CC[C@]2(C)C(n3ccnn3)=CC[C@@H]12` showed an inhibition at 0.01 µM [1] of 1 to 50%.

For `CCCOc1cncc(C2=CC[C@H]3[C@@H]4CCC5=CCN(C)CC[C@]5(C)[C@H]4CC[C@]23C)c1`, the inhibition at 0.01 µM [1] was 1 to 50%.

For `C[C@]12CC[C@H]3[C@@H](CCC4=CC(=O)NCC[C@@]43C)C1=CC=C2c1cccnc1`, the pIC50 [2] was at least 7.96 and the inhibition at 0.01 µM [1] was 50 to 80%.

`C[C@]12CC(=O)C[C@@H]1CC[C@@H]1[C@@H]2CC[C@]2(C)C(n3ccnn3)=CC[C@@H]12` showed an inhibition at 0.01 µM [1] of 1 to 50%.

For `COc1cncc(C2=CC=C3[C@@H]4CC=C5C[C@@H](OC(C)=O)CC[C@]5(C)[C@H]4CC[C@]23C)c1`, the pIC50 [2] was at least 7.96 and the inhibition at 0.01 µM [1] was at least 80%.

Work on `CCc1cncc(C2=CC[C@H]3[C@@H]4CCC5=CCN(C)CC[C@]5(C)[C@H]4CC[C@]23C)c1` yielded an inhibition at 0.01 µM [1] of 1 to 50%.

`CCOc1cncc(C2=CC[C@H]3[C@@H]4CC[C@H]5CCCCC[C@]5(C)[C@H]4CC[C@]23C)c1` showed an inhibition at 0.01 µM [1] of 1 to 50%.

With `C[C@]12CCCNC[C@@H]1CC[C@@H]1[C@@H]2CC[C@]2(C)C(n3ccnn3)=CC[C@@H]12` the inhibition at 0.01 µM [1] was 1 to 50%.

For `Cc1ccncc1C1=CC[C@H]2[C@@H]3CC[C@H]4CCCCC[C@]4(C)[C@H]3CC[C@]12C`, the inhibition at 0.01 µM [1] was 1 to 50%.

For `C[C@]12CC[C@H]3[C@@H](CC(F)[C@]4(O)C[C@@H](O)CC[C@]34C)[C@@H]1CC=C2c1cccnc1` (stereo not given in full), the pIC50 [2] was at least 7.96, the half-life at 1 µM [4] was 1 to 50 min and the inhibition at 20 h [3] was at least 50%.

`CCOc1cncc(C2=CC[C@H]3[C@@H]4CC[C@H]5CCOCC[C@]5(C)[C@H]4CC[C@]23C)c1` showed an inhibition at 0.01 µM [1] of 50 to 80%.

In the case of `COC1CC[C@@]2(C)[C@@H](CC[C@@H]3[C@@H]2CC[C@]2(C)C(c4cccnc4)=CC[C@@H]32)C1` (stereo not given in full), the inhibition at 0.01 µM [1] was 1 to 50%.
